# Experimental data from ChEMBL document CHEMBL1201862, “PubChem BioAssay data set” (2004).
# Calls of active or inactive are those of the source. Rule as the data show it, for most assays here: actives have a measured EC50 and inactives only a lower limit.
# Assays:
# [1] = cytotoxicity toward NIH3T3 fibroblasts, dose response, counter-screen, cell-based, ATP luminescence, mouse fibroblasts (AID 2010); type: functional;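 also: cells exposed to compound for about 90 hours before reading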
# [2] = inhibitors of intracellular T. cruzi replication, confirmation, NIH3T3 host cells, beta-gal luminescence (AID 2044); type: functional, cell-based;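 also: intracellular parasites grown in NIH/3T3 mouse fibroblasts as host cells; luminescent beta-galactosidase reporter signal from transgenic T. cruzi replicating inside host cells; inhibitors lower the luminescence signal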
# [3] = test system: H4; assay: Luminescence Cell-Based Dose Response HTS to Identify Activators of 5'UTR Stem-Loop Driven Prion Protein mRNA Translation in H4 Neuroglioblastoma Cells. [Related pubchem assays: 1829 (Project Summary), 1814 (Primary HTS)]; type: functional; settings: Homo sapiens
# [4] = Luminescence Cell-Based Dose Response HTS to Identify Activators of Luciferase Translation or Activity in H4 […] Cells. [Related pubchem assays: 1829 (Project Summary), 1814 (Primary HTS)]; type: functional
# [5] = biological target: Cytochrome P450 3A4 (Homo sapiens, UniProt P08684);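 also: CYP3A4 tested as one member of a cytochrome P450 panel screen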
# Cytochrome P450 3A4, sequence (P08684 whole entry): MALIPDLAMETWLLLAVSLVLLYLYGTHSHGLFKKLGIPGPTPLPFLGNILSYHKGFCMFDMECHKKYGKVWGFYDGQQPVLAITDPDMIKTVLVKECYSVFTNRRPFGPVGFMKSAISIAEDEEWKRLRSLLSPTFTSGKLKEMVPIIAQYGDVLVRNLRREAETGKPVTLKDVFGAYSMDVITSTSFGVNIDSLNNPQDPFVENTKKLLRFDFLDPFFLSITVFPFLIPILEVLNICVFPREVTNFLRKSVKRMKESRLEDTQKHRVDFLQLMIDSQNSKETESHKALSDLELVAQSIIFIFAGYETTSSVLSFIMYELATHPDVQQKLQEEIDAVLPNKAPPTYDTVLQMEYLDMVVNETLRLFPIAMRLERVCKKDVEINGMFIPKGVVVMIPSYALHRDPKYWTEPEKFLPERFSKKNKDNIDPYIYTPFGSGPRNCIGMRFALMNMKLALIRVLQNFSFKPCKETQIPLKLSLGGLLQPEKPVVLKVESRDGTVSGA
# [6] = biological target: T1, Cytochrome P450 1A2 (Homo sapiens, UniProt P05177);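 also: PubChem cytochrome P450 panel assay, CYP1A2 panel member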
# T1 sequence (P05177 whole entry): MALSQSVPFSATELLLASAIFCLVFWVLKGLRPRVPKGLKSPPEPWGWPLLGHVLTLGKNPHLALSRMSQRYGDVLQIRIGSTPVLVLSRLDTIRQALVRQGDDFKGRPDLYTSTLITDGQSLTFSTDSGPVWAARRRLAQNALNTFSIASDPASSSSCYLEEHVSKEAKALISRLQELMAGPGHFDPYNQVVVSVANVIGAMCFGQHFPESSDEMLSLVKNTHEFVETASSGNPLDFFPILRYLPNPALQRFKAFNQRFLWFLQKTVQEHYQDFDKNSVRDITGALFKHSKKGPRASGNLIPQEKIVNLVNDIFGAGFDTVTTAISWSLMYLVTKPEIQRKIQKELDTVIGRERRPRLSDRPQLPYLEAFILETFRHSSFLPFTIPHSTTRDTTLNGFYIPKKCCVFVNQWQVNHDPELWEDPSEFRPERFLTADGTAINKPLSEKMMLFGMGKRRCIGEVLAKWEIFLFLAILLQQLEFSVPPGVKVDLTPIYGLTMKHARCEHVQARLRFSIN
# [7] = Luminescence Cell-Based Dose Confirmation HTS to Identify Activators of 5'UTR Stem-Loop Driven Alpha-Synuclein mRNA Translation in H4 Neuroglioblastoma Cells. [Related pubchem assays: 1829 (Project Summary), 1814 (Primary HTS)]; type: functional
smiles,measurement,setting,value
Cc1[nH]c2ccc(-c3nnc(SCC(=O)N4CCCc5ccccc54)o3)cc2c1C,EC50,[1],> 60 µM (not active)
same,EC50,[2],0.782 µM (active)
Cc1ccc(NC(=O)CN2CCCCCC2)c(Br)c1,EC50,[3],59.9 µM (active)
same,EC50,[4],9.38 µM (active)
Clc1ccc(CSc2nnc(-c3ccncc3)s2)cc1,EC50,[1],26.3 µM (active)
same,EC50,[2],2.14 µM (active)
Cc1cc(C)c2c(N)c(C(=O)c3ccccc3Cl)sc2n1,EC50,[1],> 60 µM (not active)
same,EC50,[2],0.1 µM (active)
CO[C@@H]1COC(=O)[C@H](COCc2ccccc2)NC(=O)C/C=C\[C@@H](C)[C@H](OC)COC(=O)[C@@H](C)NC(=O)C/C=C\[C@H]1C,AC50,[5],3.16 µM (inconclusive)
Cn1c(C(=O)OC(C(=O)NC2CCCC2)c2cccnc2)cc2sccc21 (centres undefined),EC50,[1],> 60 µM (not active)
same,EC50,[2],0.489 µM (active)
CCN1CCN(c2ccc(S(=O)(=O)N3CCOCC3)cc2NC(=O)CCOc2ccccc2)CC1,EC50,[1],> 60 µM (not active)
same,EC50,[2],1.26 µM (active)
O[C@@H](c1cc(-c2ccccc2)nc2c1ccc1ccccc12)[C@@H]1CCCCN1,AC50,[6],5.01 µM (inconclusive)
CO[C@@H]1COC(=O)C/C=C\[C@@H](C)COC(=O)[C@H](Cc2ccccc2)NC(=O)C/C=C\[C@H]1C,AC50,[5],1.58 µM (inconclusive)
Cc1ccc(NC2CCCN(C(=O)CSc3ccncc3)C2)cc1C (centres undefined),EC50,[1],> 60 µM (not active)
same,EC50,[2],0.294 µM (active)
COc1cc2c(cc1OC)[C@@H]1Cc3ccc(OC)c(OC)c3CN1CC2,EC50,[1],> 60 µM (not active)
same,EC50,[2],> 60 µM (not active)
O=C(c1ccco1)N1CCn2c1nc1ccccc12,EC50,[3],6.26 µM (active)
same,EC50,[7],1.12 µM (active)
same,EC50,[4],35.3 µM (active)
Oc1ccc2c3c1O[C@H]1c4oc5ccccc5c4C[C@]4(O)[C@H](C2)N(CC2CC2)CC[C@@]314,AC50,[5],15.8 µM (inconclusive)
COc1ccc(C(CNC(=O)c2cc(O)nc3ccccc23)N2CCCC2)cc1 (centres undefined),AC50,[5],15.8 µM (inconclusive)
same,AC50,[6],20 µM (inconclusive)
Cc1ccc(Cl)cc1N1CCN(CC(=O)Nc2ccc(CN3CCCCC3)cc2)CC1,EC50,[1],> 60 µM (not active)
same,EC50,[2],1.31 µM (active)
Cc1cccc(CSc2nc3c(cc2C#N)CN(C)CC3)c1,EC50,[1],> 30 µM (not active)
same,EC50,[2],0.156 µM (active)
O=c1c(CCc2ccccc2)nc2cnc(N3CCOCC3)nc2n1Cc1ccc(F)cc1,AC50,[6],10 µM (inconclusive)
Cc1nn(CC(O)COc2ccc3c(c2)CCC3)c(C)c1Br (centres undefined),AC50,[5],15.8 µM (inconclusive)
Cc1cccc2sc(N(CCN(C)C)C(=O)C3CCN(S(=O)(=O)c4cccs4)CC3)nc12,EC50,[1],> 60 µM (not active)
same,EC50,[2],0.24 µM (active)
c1ccc(Cn2c(Sc3nnnn3-c3ccccc3)nnc2-c2ccccc2)cc1,EC50,[3],> 120 µM (not active)
same,EC50,[7],> 120 µM (not active)
same,EC50,[4],11.9 µM (active)
COc1ccc(CNN2CCCCC2C(=O)Nc2ccc(OC)c(OCC(C)C)c2)cc1OC (centres undefined),EC50,[1],> 60 µM (not active)
same,EC50,[2],> 60 µM (not active)
Cc1cc(N/C=C\C(=O)c2ccc(Cl)c(Cl)c2)no1,EC50,[3],> 120 µM (not active)
same,EC50,[7],2.53 µM (active)
same,EC50,[4],15 µM (active)
Cc1nc2c(ccc3nc(NC(=O)c4ccc5c(c4)OCCO5)sc32)s1,EC50,[1],> 30 µM (not active)
same,EC50,[2],3.07 µM (active)
COc1ccc(C(=O)N2CCC3(CCCN(Cc4nccs4)C3)CC2)cc1,AC50,[5],7.94 µM (inconclusive)
Cn1c(=O)cc(OCCCC(=O)N2CCN(c3ccccc3)CC2)c2ccccc21,AC50,[5],1.12 µM (inconclusive)
same,AC50,[6],15.8 µM (inconclusive)
CCOc1ccc(Nc2ncnc3c2nnn3Cc2ccccc2)cc1,EC50,[3],30.9 µM (active)
same,EC50,[7],17.7 µM (active)
same,EC50,[4],18.8 µM (active)
